Test results reported in US20230058189A1, “QUINOLIN-4-ONE AND 4(1H)-CINNOLINONE COMPOUNDS AND METHODS OF USING SAME” (Frequency Therapeutics, Inc., priority 2019, published 2023).

Legend:
Assay type in all cases: biochemical
GSK3α = GSK3α (Homo sapiens, UniProt P49840); assay: GSK3α in vitro enzymatic assay (Kinase-Glo Max luminescence); details: recombinant human GSK3, 10 μM ATP; approximate values; read-out: Potency GSK3alpha
Procedure: (§1) Enzymatic activities of compounds of the present disclosure can be tested using recombinant human GSK3 in an in vitro enzymatic assay to determine the ability of the compounds of the present disclosure to inhibit GSK3α and GSK3β.
(§2) The assay was performed using Kinase-Glo® Max luminescence kinase assay kit (Promega). The assay measures kinase activity by quantitating the amount of ATP remaining in solution following a kinase reaction. The luminescent signal from the assay is correlated with the amount of ATP present and is inversely correlated with the amount of kinase activity.
(§3) To perform the assay, compounds were diluted in 10% DMSO and 5 μl of the dilution was added to a 50 μl reaction so that the final concentration of DMSO was 1% in all of reactions. The enzymatic reactions were conducted at 30° C. for 40 minutes. The 50 μl reaction mixture contained 40 mM Tris, pH 7.4, 10 mM MgCl2, 0.1 mg/ml BSA, 2 mM DTT, 0.1 mg/ml GSK tide substrate, 10 uM ATP and GSK3. After the enzymatic reaction, 50 μl of Kinase-Glo Max Luminescence kinase assay solution (Promega) was added to each reaction and plates were incubated for 15 minutes at room temperature. Luminescence signal was measured using a BioTek Synergy 2 microplate reader.
(§4) Kinase activity assays were performed in duplicate at each concentration. The luminescence data were analyzed using the computer software, GraphPad Prism. The difference between luminescence intensities in the absence of Kinase (Lut) and in the presence of Kinase (Luc) was defined as 100% activity (Lut-Luc). Using luminescence signal (Lu) in the presence of the compound, percent activity was calculated as: % activity={(Lut-Lu)/(Lut-Luc)}×100%, where Lu=the luminescence intensity in the presence of the compound (all percent activities below zero were shown zero in the table).
(§5) The values of percent activity versus a series of compound concentrations were then plotted using non-linear regression analysis of Sigmoidal dose-response curve generated with the equation Y=B+(T−B)/1+10((LogEC50−X)×Hill Slope), where Y=percent activity, B=minimum percent activity, T=maximum percent activity, X=logarithm of compound and Hill Slope=slope factor or Hill coefficient. The ICs, value was determined by the concentration causing a half-maximal percent activity.

LSD-1 = LSD-1 (Homo sapiens, UniProt O60341); assay: LSD-1 A-screen (AlphaScreen) demethylase enzymatic assay; details: approximate values; for inhibition at 50 µM: 50 μM compound, read-out: Potency LSD-1 % Inhibition at 50 μM; for IC50: read-out: Potency LSD-1 IC50
Procedure: (§6) Enzymatic activities of compounds of the present disclosure can be tested with recombinant human LSD using an in vitro enzymatic assay to determine the ability of the compounds of the present disclosure to inhibit LSD-1 and LSD2. Examples of the assay are provided below.
(§7) All of the enzymatic reactions were conducted in duplicate at room temperature for 60 minutes in a 10 μL mixture containing assay buffer, histone H3 peptide substrate, demthylase enzyme, and the test compound. These 10 μL reactions were carried out in wells of a 384-well Optiplate (PerkinElmer). The dilution of the compounds was first performed in 100% DMSO with the highest concentration at 5 mM Each intermediate compound dilution (in 100% DMSO) was then directly diluted 30× fold into assay buffer for 3.3× concentration (DMSO). […] From this intermediate step, 3 μL of compound was added to 4 μL of demethylase enzyme dilution was incubated for 30 minutes at room temperature. After this incubation, 3 μL of peptide substrate was added. The final DMSO concentration was 1%. After enzymatic reactions, 5 μL of anti-Mouse or anti-Rabbit Acceptor beads (PerkinElmer, diluted 1:500 with 1× detection buffer) and […] (BPS, diluted 1:800 with 1× detection buffer) were added to the reaction mix. After brief shaking, the plate was incubated for 30 minutes. Finally, 10 μL of AlphaScreen™ Streptavidin-conjugated donor beads (Perkin, diluted 1:125 with 1× detection buffer) were added. After 30 minutes, the samples were measured in an AlphaScreen microplate reader (EnSpire Alpha 2390 Multilabel Reader, Perkin Elmer).
(§8) Enzyme activity assays were performed in duplicates at each concentration. The A-screen intensity data were analyzed and compared. In the absence of the compound, the intensity in each data set was defined as 100% (Ce) activity. In the absence of enzyme, the intensity in each data set was defined as 0% (C0) activity. The percent activity in the presence of each compound was calculated according to the following equation: % activity=(C−C0)/(Ce−C0), where C=the intensity in the presence of the compound.
as §5, with “value” for “values”, “was” for “were”, “IC50” for “ICs,”

LSD2 = target: T1, LSD2 (Homo sapiens, UniProt Q8NB78); assay: LSD2 A-screen (AlphaScreen) demethylase enzymatic assay; details: approximate values; for inhibition at 50 µM: 50 μM compound, read-out: Potency LSD-2 % Inhibition at 50 μM; for IC50: read-out: Potency LSD-2 IC50
T1 sequence (Q8NB78 1-822): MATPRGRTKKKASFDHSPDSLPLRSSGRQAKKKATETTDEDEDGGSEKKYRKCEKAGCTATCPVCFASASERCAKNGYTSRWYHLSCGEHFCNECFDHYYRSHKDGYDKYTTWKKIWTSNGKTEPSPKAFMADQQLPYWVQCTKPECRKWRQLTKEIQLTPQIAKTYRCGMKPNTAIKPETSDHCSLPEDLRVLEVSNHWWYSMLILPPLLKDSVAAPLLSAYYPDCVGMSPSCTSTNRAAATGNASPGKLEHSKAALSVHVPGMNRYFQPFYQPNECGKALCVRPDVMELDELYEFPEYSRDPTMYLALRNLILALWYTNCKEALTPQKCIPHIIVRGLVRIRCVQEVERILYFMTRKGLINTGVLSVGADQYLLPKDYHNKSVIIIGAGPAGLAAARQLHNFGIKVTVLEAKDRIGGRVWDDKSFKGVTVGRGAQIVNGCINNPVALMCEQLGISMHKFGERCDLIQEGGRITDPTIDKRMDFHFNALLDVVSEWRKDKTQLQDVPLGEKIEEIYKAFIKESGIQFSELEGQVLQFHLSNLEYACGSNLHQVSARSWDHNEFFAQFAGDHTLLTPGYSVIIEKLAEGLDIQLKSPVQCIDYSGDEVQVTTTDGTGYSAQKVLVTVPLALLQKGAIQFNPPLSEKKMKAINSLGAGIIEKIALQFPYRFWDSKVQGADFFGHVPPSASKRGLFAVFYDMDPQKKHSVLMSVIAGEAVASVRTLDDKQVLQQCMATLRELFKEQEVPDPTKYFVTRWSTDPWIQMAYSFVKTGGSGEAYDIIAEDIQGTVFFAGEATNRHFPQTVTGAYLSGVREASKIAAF
Procedure: as §6, §7, §8
as §5, with “value” for “values”, “was” for “were”, “IC50” for “ICs,”

GSK3β = GSK3β (Homo sapiens, UniProt P49841); assay: GSK3β in vitro enzymatic assay (Kinase-Glo Max luminescence); details: recombinant human GSK3, 10 μM ATP; approximate values; read-out: Potency GSK3beta
Sequence of GSK3β (P49841 whole entry): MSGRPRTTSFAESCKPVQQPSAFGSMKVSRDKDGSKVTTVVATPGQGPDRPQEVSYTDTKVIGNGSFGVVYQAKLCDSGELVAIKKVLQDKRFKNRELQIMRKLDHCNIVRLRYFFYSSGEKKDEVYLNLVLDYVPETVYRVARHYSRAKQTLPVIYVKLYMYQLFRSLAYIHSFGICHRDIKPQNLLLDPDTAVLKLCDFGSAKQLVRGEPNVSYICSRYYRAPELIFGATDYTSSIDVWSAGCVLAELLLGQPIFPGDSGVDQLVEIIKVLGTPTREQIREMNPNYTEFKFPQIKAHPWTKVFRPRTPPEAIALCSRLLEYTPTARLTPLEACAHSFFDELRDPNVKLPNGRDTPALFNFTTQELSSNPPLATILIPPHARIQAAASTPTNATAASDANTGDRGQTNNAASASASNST
Procedure: as §1, §2, §3, §4, §5

Sequence of GSK3α (P49840 whole entry): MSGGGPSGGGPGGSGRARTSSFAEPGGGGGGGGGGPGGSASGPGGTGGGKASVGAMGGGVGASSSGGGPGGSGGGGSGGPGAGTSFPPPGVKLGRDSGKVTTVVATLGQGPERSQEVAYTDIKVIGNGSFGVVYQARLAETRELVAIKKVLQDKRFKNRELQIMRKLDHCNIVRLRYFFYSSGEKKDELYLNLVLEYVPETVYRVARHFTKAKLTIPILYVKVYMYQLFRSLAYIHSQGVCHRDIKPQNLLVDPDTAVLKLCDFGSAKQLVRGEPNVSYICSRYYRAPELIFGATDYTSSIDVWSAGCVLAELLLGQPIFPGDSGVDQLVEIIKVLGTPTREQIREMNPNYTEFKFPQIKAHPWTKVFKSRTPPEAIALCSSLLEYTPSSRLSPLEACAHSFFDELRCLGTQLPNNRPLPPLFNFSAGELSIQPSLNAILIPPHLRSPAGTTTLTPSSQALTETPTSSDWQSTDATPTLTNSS

| SMILES | IC50 (GSK3α) [nM] | inhibition at 50 µM (LSD-1) [%] | inhibition at 50 µM (LSD2) [%] | IC50 (GSK3β) [nM] | IC50 (LSD-1) [nM] | IC50 (LSD2) [nM] |
| --- | --- | --- | --- | --- | --- | --- |
| CCn1cc(C(=O)O)c(=O)c2c(N)cc(N[C@@H]3C[C@H]3c3ccccc3)cc21 (relative stereo) [Compound I-59] | 4680 | 11 | 24 | 4430 |  |  |
| CCn1cc(C(=O)O)c(=O)c2c(N)c(F)c(NCCN[C@@H]3C[C@H]3c3ccccc3)cc21 (relative stereo) [Compound I-29] | 119 |  | 54 | 303 | 6900 |  |
| CCn1cc(C(=O)O)c(=O)c2c(N)c(F)c(NCCc3ccccc3)cc21 [Compound I-18] | 121 | 11 | 1 | 231 |  |  |
| Nc1c(F)c(N[C@@H]2C[C@H]2c2ccccc2)c(F)c2c1c(=O)c(C(=O)O)cn2C1CC1 (relative stereo) [Compound I-32] | 1600 | 40 | 36 | 2100 |  |  |
| CCn1cc(C(=O)O)c(=O)c2c(N)c(F)c(N(C)CCN[C@H]3C[C@@H]3c3ccccc3)cc21 (relative stereo) [Compound I-50] | > 10000 |  | 50 | > 10000 | 5500 |  |
| CCn1cc(C(N)=O)c(=O)c2c(N)c(F)c(NCCN[C@H]3C[C@@H]3c3ccccc3)cc21 (relative stereo) [Compound I-83] | 3.3 |  |  | 3.4 | 230 | > 100000 |
| CCn1cc(C(=O)O)c(=O)c2c(N)c(F)c(NC3CCC3)cc21 [Compound I-12] | 82 | 36 | 0 | 55 |  |  |
| CCn1cc(C(=O)O)c(=O)c2c(N)c(F)c(NC3CC(N[C@@H]4C[C@H]4c4ccccc4)C3)cc21 (relative stereo) [Compound I-70] | 207 |  |  | 169 | 1100 | > 100000 |
| CCn1cc(C(=O)O)c(=O)c2c(N)cc(NCCCc3ccccc3)cc21 [Compound I-57] | 762 | 83 | 42 | 1760 |  |  |
| CCn1cc(C(=O)O)c(=O)c2c(N)c(F)c(N[C@H]3CC[C@@H](N[C@@H]4C[C@H]4c4ccccc4)CC3)cc21 (relative stereo) [Compound I-28] | 451 |  | 65 | 691 | 1300 |  |
| CCCn1cc(C(=O)O)c(=O)c2c(N)c(F)c(NCCN[C@@H]3C[C@H]3c3ccccc3)cc21 (relative stereo) [Compound I-87] | 114 |  | 15 | 157 | 3300 |  |
| Nc1c(F)c(NCCN[C@@H]2C[C@H]2c2ccccc2)cc2c1c(=O)c(C(=O)O)cn2C1CC1 (relative stereo) [Compound I-89] | 393 |  | 5 | 308 | 7400 |  |
| CCn1cc(C(=O)O)c(=O)c2c(N)c(F)c(N[C@H]3CC[C@H](N[C@@H]4C[C@H]4c4ccccc4)CC3)cc21 (relative stereo) [Compound I-27] | 47 |  | 45 | 75 | 1600 |  |
| CCn1cc(C#N)c(=O)c2c(N)c(F)c(N[C@@H]3C[C@H]3c3ccccc3)cc21 (relative stereo) [Compound I-38] | 6.3 | 15 | 0 | 2.5 |  |  |

Continued, values first:

| IC50 (GSK3α) [nM] | inhibition at 50 µM (LSD-1) [%] | inhibition at 50 µM (LSD2) [%] | IC50 (GSK3β) [nM] | IC50 (LSD-1) [nM] | IC50 (LSD2) [nM] | SMILES |
| --- | --- | --- | --- | --- | --- | --- |
| 221 | 26 | 16 | 770 |  |  | CCn1cc(C(=O)O)c(=O)c2c(N)c(F)c(N[C@@H]3C[C@@H]3c3ccccc3)cc21 (relative stereo) [Compound I-23] |
| 392 | 19 | 0 | 334 |  |  | CCn1cc(C(=O)O)c(=O)c2c(N)c(F)c(N[C@@H]3C[C@H]3c3ccccc3)cc21 [Compound I-21] |
| 659 | 2 | 19 | 2030 |  |  | CCn1cc(C(=O)O)c(=O)c2c(N)c(F)c(NCc3ccccc3)cc21 [Compound I-17] |
| 3800 | 22 | 6 | 1900 |  |  | CCn1cc(C(=O)O)c(=O)c2c(N)c(F)c(NC3CCc4ccccc43)cc21 (centres unmarked) [Compound I-10] |
| 32 | 15 | 4 | 31 |  |  | CCn1cc(C(=O)O)c(=O)c2c(N)c(F)c(N[C@H]3C[C@H](c4ccccc4)C3)cc21 [Compound I-60] |
| 352 | 2 | 2 | 223 |  |  | CCn1cc(C(=O)O)c(=O)c2c(N)c(F)c(NC3CC3)cc21 [Compound I-15] |
| 107 | 32 | 5 | 68 |  |  | CCn1cc(C(=O)O)c(=O)c2c(N)c(F)c(Nc3ccccc3)cc21 [Compound I-16] |
| 72 | 26 | 15 | 268 |  |  | CCn1cc(C(=O)O)c(=O)c2c(N)c(F)c(N[C@H]3C[C@@H](c4ccccc4)C3)cc21 [Compound I-61] |
| 1550 |  | 76 | 3380 | 190 |  | CCn1cc(C(=O)O)c(=O)c2c(N)c(F)c(NCCN[C@@H]3C[C@@]34CCc3ccccc34)cc21 (relative stereo) [Compound I-82] |
